Data: US10973251B1, “Nutritional treatment for cancer” (The Board of Trustees of the Leland Stanford Junior …, priority 2015, dated 2021)

What was measured:
Assay type in all cases: cell-based, human
cancer cell lines = assay: growth assay in dropout media, cancer cell lines as a group; conditions: up to 50× strength; cell lines sensitive to cystine dropout
Method: (§1) To establish the screening assay for the nutritional weakness of cancer cells, 5 human blood cancer cell lines, 4 human lung cancer cell lines, 1 human colon cancer cell line, 1 human liver cancer cell line, 5 human breast cancer cell lines, and 3 human prostate cancer cell lines were used (Table 1). All 19 cell lines were cultured in reconstituted complementary RPM11640 based media R-comp (Table 2) for more than 10 days before screening assays.
To test for nutritional weaknesses of cancer cell lines or primary cancer cells, each individual non-essential amino acid was dropped out from the R-comp media (Table 2). Multiple amino acid dropout media was used to test combinatorial effects. Prior to the experiments, cells were first acclimated in R-comp media, and then harvested and washed in EBSS solution. […]
Cell growth was analyzed with two cell viability methods (XTT and CellTiter-Glo-based assays). In the XTT-based assay, cell growth is measured by absorbance at 450 nm after adding the XTT reagent to each culture and incubating under the same culture conditions for 2 hours according to the manufacturer's instructions (ThermoFisher X6493). Absorption at 690 nm was also measured as background and subtracted from absorption at 450 nm. In the CellTiter-Glo-based assay (Promega, G7572), cell growth is measured by luminescence with a dwelling time of 200 milliseconds on a Tecan plate reader. […]

H661 = assay: relative growth in dropout media (XTT / CellTiter-Glo); conditions: for relief of suppressed growth by augmented supplementation (in words): cystine and tyrosine dropouts, 20 times; for relative growth: three days
Method: as §1
(§2) To test for nutritional weaknesses of cancer cell lines or primary cancer cells, each individual non-essential amino acid was dropped out from the R-comp media (Table 2). Multiple amino acid dropout media was used to test combinatorial effects. Prior to the experiments, cells were first acclimated in R-comp media, and then harvested and washed in EBSS solution. The cell density was adjusted to 1-3×10^5 cells/ml before adding to equal volumes of 2× dropout media plus 2× R-comp (positive control) in a 96-well plate. The plates were then placed in an incubator set at 37° C. with a 5% CO2 supply. Five technical replicates were used for each medium treatment. For each cell line, at least three biological replicates were performed with 2 time-points (day 1 and day 3).
(§3) Cell growth was analyzed with two cell viability methods (XTT and CellTiter-Glo-based assays). In the XTT-based assay, cell growth is measured by absorbance at 450 nm after adding the XTT reagent to each culture and incubating under the same culture conditions for 2 hours according to the manufacturer's instructions (ThermoFisher X6493). Absorption at 690 nm was also measured as background and subtracted from absorption at 450 nm. In the CellTiter-Glo-based assay (Promega, G7572), cell growth is measured by luminescence with a dwelling time of 200 milliseconds on a Tecan plate reader.
(§4) The relative growth is calculated with the following equation: Growth %=(readingdropout−average(readingsblank))/(average(readingsR-comp)−average(readingsblank))×100%

HCT116 = assay: as above; conditions: for growth with vitamin supplementation in the absence of cystine (in words): 50×
Method: as §1, §2, §3, §4

U937 = assay: as above; conditions: for relief of suppressed growth by augmented supplementation (in words): cystine and tyrosine dropouts, 20 times
Method: as §1, §2, §3, §4

K562 = assay: as above; conditions: for relative growth: —Cys, three days, CellTiter-Glo
Method: as §1, §2, §3, §4

H520 = assay: as above; conditions: for relative growth: three days
Method: as §1, §2, §3, §4

H69 = assay: as above; conditions: for relative growth: three days
Method: as §1, §2, §3, §4

HCC1187 = assay: as above; conditions: —Cys (5x Met), vitamin supplementation 50x, three days, Cell-Titer-Glo
Method: as §1, §2, §3, §4

MDA-MB-453 = assay: as above
Method: as §1, §2, §3, §4

HCC1599 = assay: as above
Method: as §1, §2, §3, §4

H1437 = assay: as above
Method: as §1, §2, §3, §4

PC-3 = assay: as above; conditions: —Cys (5x Met), vitamin supplementation 50x, three days, Cell-Titer-Glo
Method: as §1, §2, §3, §4

HepG2 = assay: as above; conditions: —Cys (5x Met), vitamin supplementation 50x, three days, Cell-Titer-Glo
Method: as §1, §2, §3, §4

HL60 = assay: as above; conditions: —Cys (5x Met), vitamin supplementation 50x, three days, Cell-Titer-Glo
Method: as §1, §2, §3, §4

MDA-MB-231 = assay: as above; conditions: —Cys (5x Met), vitamin supplementation 50x, three days, Cell-Titer-Glo
Method: as §1, §2, §3, §4

C4-28 = assay: as above; conditions: —Cys (5x Met), vitamin supplementation 50x, three days, Cell-Titer-Glo
Method: as §1, §2, §3, §4

HCC70 = assay: as above; conditions: —Cys (5x Met), vitamin supplementation 50x, three days, Cell-Titer-Glo
Method: as §1, §2, §3, §4

Jurkat = assay: as above
Method: as §1, §2, §3, §4

GA10 = assay: as above
Method: as §1, §2, §3, §4

VCaP = assay: as above; conditions: —Cys (5x Met), vitamin supplementation 50x, three days, Cell-Titer-Glo
Method: as §1, §2, §3, §4

[1] = —Cys (5x Met), vitamin supplementation 50x, Cell-Titer-Glo
[2] = —Cys, +Cys 0.01x (5x Met), CellTiter-Glo
[3] = —Cys, +Cys 0.02x (5x Met), CellTiter-Glo
[4] = —Cys, +Cys 0.05x (5x Met), CellTiter-Glo
[5] = —Cys, +Cys 0.1x (5x Met), CellTiter-Glo
[6] = —Cys, +Cys 0.5x (5x Met), CellTiter-Glo
[7] = 0.1× level of cystine supplementation
[8] = —Cys (5x Met), vitamin supplementation 50x, three days, Cell-Titer-Glo
[9] = —Cys, +Glut 2.5x, CellTiter-Glo
[10] = —Cys, +Glut 100x, CellTiter-Glo

CSCC[C@H](N)C(=O)O [+Met, methionine]
promotion of growth under cystine dropout (in words) (cancer cell lines): failed to promote the growth
relief of suppressed growth by augmented supplementation (in words) (H661): not brought back
relative growth (H661; —Cys, +Met 10x, CellTiter-Glo): 0.1%
relative growth (H661; —Cys, +Met 50x, CellTiter-Glo): 0.1%
restoration of growth in the absence of cystine (in words) (HCT116; 10×): substantially restore HCT116 growth
relief of suppressed growth by augmented supplementation (in words) (U937): not brought back
relative growth (K562; +Met 10x): 1.6%
relative growth (K562; +Met 50x): 1.1%
relative growth (H520; —Cys, +Met 10x, CellTiter-Glo): 7.3%
relative growth (H520; —Cys, +Met 50x, CellTiter-Glo): 16.7%
relative growth (H69; —Cys, +Met 10x, CellTiter-Glo): 1.2%
relative growth (H69; —Cys, +Met 50x, CellTiter-Glo): 1.2%

Cc1ncc(CO)c(CO)c1O [B6, pyridoxine]
relative growth (H661; [1]): 0.9%
relative growth (HCC1187): 2.2%
relative growth (H520; [1]): 0.2%
relative growth (H69; [1]): 5.2%

Cc1ncc(C[n+]2csc(CCO)c2C)c(N)n1 [B1, thiamine]
relative growth (H661; [1]): 1.5%
growth with vitamin supplementation in the absence of cystine (in words) (MDA-MB-453; 50×): growth was promoted
growth with vitamin supplementation in the absence of cystine (in words) (HCC1599): substantially restored
growth with vitamin supplementation in the absence of cystine (in words) (HCT116): largely restored
relative growth (HCC1187): 6.2%
relative growth (H520; [1]): 0.5%
relative growth (H69; [1]): 5.8%

N[C@@H](CSSC[C@H](N)C(=O)O)C(=O)O [+Cys (5x Met), cystine]
relative growth (H661; [2]): 0.1%
relative growth (H661; [3]): 0.1%
relative growth (H661; [4]): 0.1%
relative growth (H661; [5]): 0.1%
relative growth (H661; [6]): 103.2%
restoration of growth by adding back cystine (in words) (K562; [7]): substantially restored to the levels of the control
relative growth (K562; +Cys 0.01x (5x Met)): 1.9%
relative growth (K562; +Cys 0.02x (5x Met)): 2.2%
relative growth (K562; +Cys 0.05x (5x Met)): 9.5%
relative growth (K562; +Cys 0.1x (5x Met)): 36.5%
relative growth (K562; +Cys 0.5x (5x Met)): 101.5%
restoration of growth by adding back cystine (in words) (H520; [7]): merely restored
relative growth (H520; [2]): 5.2%
relative growth (H520; [3]): 4.7%
relative growth (H520; [4]): 9.4%
relative growth (H520; [5]): 41.8%
relative growth (H520; [6]): 110.4%
relative growth (H69; [2]): 1.2%
relative growth (H69; [3]): 1.3%
relative growth (H69; [4]): 1.2%
relative growth (H69; [5]): 2.1%
relative growth (H69; [6]): 51.8%

N[C@@H](Cc1ccccc1)C(=O)O [phenylalanine]
relief of suppressed growth by augmented supplementation (in words) (H661): not brought back
relief of suppressed growth by augmented supplementation (in words) (U937): not brought back

Cc1cc2nc3c(=O)[nH]c(=O)nc-3n(C[C@H](O)[C@H](O)[C@H](O)CO)c2cc1C [B2, riboflavin]
relative growth (H661; [1]): 0.2%
growth with vitamin supplementation in the absence of cystine (in words) (HCT116): even more drastic growth suppression
relative growth (HCC1187): 1.0%
relative growth (H520; [1]): 0.3%
relative growth (H69; [1]): 5.0%

calcium pantothenate [B5]
relative growth (H1437; [8]): 0.5%
relative growth (H661; [1]): 0.2%
relative growth (MDA-MB-453; [8]): 104.4%
relative growth (PC-3): 0.8%
relative growth (HepG2): 1.4%
relative growth (HCC1599; [8]): 4.9%
relative growth (HL60): 0.1%
relative growth (HCT116; [8]): 56.4%
relative growth (MDA-MB-231): 0.2%
relative growth (C4-28): 0.2%
relative growth (HCC70): 0.9%
relative growth (Jurkat; [8]): 0.3%
relative growth (U937; [8]): 0.0%
relative growth (GA10; [8]): 4.3%
relative growth (HCC1187): 0.0%
relative growth (H520; [1]): 0.3%
relative growth (VCaP): 0.1%
relative growth (H69; [1]): 5.5%

N[C@@H](CCC(=O)N[C@@H](CS)C(=O)NCC(=O)O)C(=O)O [+Glut, glutathione]
restoration of growth suppressed by cystine dropout (in words) (H1437; 10× supplementation): substantially restored the suppressed growth
relative growth (H661; [9]): 0.2%
relative growth (H661; —Cys, +Glut 10x, CellTiter-Glo): 13.0%
relative growth (H661; —Cys, +Glut 50x, CellTiter-Glo): 75.4%
relative growth (H661; [10]): 41.1%
restoration of growth suppressed by cystine dropout (in words) (Jurkat; 10× supplementation): substantially restored the suppressed growth
relative growth (K562; +Glut 2.5x): 16.2%
relative growth (K562; +Glut 10x): 78.8%
relative growth (K562; +Glut 50x): 84.4%
relative growth (K562; +Glut 100x): 98.9%
restoration of growth suppressed by cystine dropout (in words) (GA10; 10× supplementation): not significantly
relative growth (H520; [9]): 21.3%
relative growth (H520; —Cys, +Glut 10x, CellTiter-Glo): 71.3%
relative growth (H520; —Cys, +Glut 50x, CellTiter-Glo): 97.8%
relative growth (H520; [10]): 105.7%
restoration of growth suppressed by cystine dropout (in words) (H69; 10× supplementation): not significantly
relative growth (H69; [9]): 1.4%
relative growth (H69; —Cys, +Glut 10x, CellTiter-Glo): 2.1%
relative growth (H69; —Cys, +Glut 50x, CellTiter-Glo): 3.6%
relative growth (H69; [10]): 2.8%

O=C(O)CCCC[C@@H]1SC[C@@H]2NC(=O)N[C@@H]21 [B7, biotin]
relative growth (H661; [1]): 0.2%
relative growth (HCC1187): 5.8%
relative growth (H520; [1]): 0.2%
relative growth (H69; [1]): 5.7%

NC(=O)c1cccnc1 [B3, niacinamide]
relative growth (H661; [1]): 0.2%
relative growth (HCC1187): 3.4%
relative growth (H520; [1]): 0.3%
relative growth (H69; [1]): 5.3%
